Results as given in patent US20030103900A1, “Use of disease-associated organisms” (priority 2001, published 2003).

What follows are compounds tested on non-Hodgkins lymphoma (assay: broad spectrum antibiotic cover in a non-Hodgkins lymphoma patient with mixed bacterial pneumonia). Settings: given together: Penicillin 1 million units three times a day i.m., chloramphenicol 1.25 g three times a day i.m., flagyl 400 mg three times a day orally; following one week.
Assay type: in vivo, human
From the text: If, on the other hand, a disease-associated organism is found within the body of a patient, which organism is classified as beneficial regarding a targeted disease (i.e., the activity of the organism is either causative or synergistic toward the disease), a therapeutic agent which is antagonistic toward such beneficial organism may be administered to the patient for aiding the patient's immune system in fighting against such causative or synergistic organism. Organisms have often been reported to exist in cancer patients both in tumor biopsies and in overt disease, in the treatment of a non-Hodgkins lymphoma patient suffering from mixed bacterial pneumonia, inventor prescribed broad spectrum antibiotic cover-Penicillin 1 million units three times a day, chloramphenicol 1.25 g three times a day, and flagyl 400 mg three times a day; the first two by intramuscular route and the flagyl orally.

Penicillin was tested. Which “change of cancerous lymph nodes” value did it give?
Its value is “cancerous lymph nodes shrank and softened”.

For `O=C(N[C@H](CO)[C@H](O)c1ccc([N+](=O)[O-])cc1)C(Cl)Cl` [chloramphenicol], which “change of cancerous lymph nodes” value is on record?
The value was “cancerous lymph nodes shrank and softened”.

With `Cc1ncc([N+](=O)[O-])n1CCO` [flagyl] as the compound, how does the “change of cancerous lymph nodes” value read?
The value was “cancerous lymph nodes shrank and softened”.
